Assay results: US7528170B2, “Sulfonamide derivatives for the treatment of diseases” (Pfizer Inc., priority 2004, dated 2009)

Molecular target: T1, human β2 adrenergic receptor (Homo sapiens, UniProt P07550)
T1 construct: expressed in transfected cells; host or cells: CHO (Chinese Hamster Ovary) cells, CHOhβ2
Experiment: β2 cAMP agonist potency assay in CHOhβ2 cells (cAMP-Flashplate)
Type: cell-based
Settings: CHO cells recombinantly expressing the human β2 adrenergic receptor; compounds incubated with cells for 1 hour; data as % Isoprenaline activity, four parameter sigmoid fit
Protocol: According to another alternative, the agonist potency for the β2 receptor of the compounds of the formula (1) may also be determined by the measure of the concentration of compound according to the present invention required to produce half maximal effect (EC50) for the β2 receptor.
10 mM/100% DMSO (dimethylsulfoxide) stock of compound is diluted to required top dose in 4% DMSO. This top dose is used to construct a 10-point semi-log dilution curve, all in 4% DMSO. Isoprenaline (Sigma, 1-5627) was used as a standard in every experiment and for control wells on each plate. Data was expressed as % Isoprenaline response.
CHO (Chinese Hamster Ovary) cells recombinantly expressing the human β2 adrenergic receptor (from Kobilka et al., PNAS 84: 46-50, 1987 and Bouvier et al., Mol Pharmacol 33: 133-139 1988 CHOhβ2) were grown in Dulbeccos MEM/NUT MIX F12 (Gibco, 21331-020) supplemented with 10% foetal bovine serum (Sigma, F4135, Lot 90K8404 Exp 09/04), 2 mM glutamine (Sigma, G7513), 500 μg/ml geneticin (Sigma, G7034) and 10 μg/ml puromycin (Sigma, P8833). Cells were seeded to give about 90% confluency for testing.
25 μl/well each dose of compound was transferred into a cAMP-Flashplate® (NEN, SMP004B), with 1% DMSO as basal controls and 100 nM Isoprenaline as max controls. This was diluted 1:2 by the addition of 25 μl/well PBS. Cells were trypsinised (0.25% Sigma, T4049), washed with PBS (Gibco, 14040-174) and resuspended in stimulation buffer (NEN, SMP004B) to give 1×10^6 cells/ml CHOhB2. Compounds were incubated with 50 μl/well cells for 1 hour. Cells were then lysed by the addition of 100 μl/well detection buffer (NEN, SMP004B) containing 0.18 μCi/ml ^125I-cAMP (NEN, NEX-130) and plates were incubated at room temperature for a further 2 hours. The amount of ^125I-cAMP bound to the Flashplate® was quantified using a Topcount NXT (Packard), normal counting efficiency for 1 minute. Dose-response data was expressed as % Isoprenaline activity and fitted using a four parameter sigmoid fit. […] The following table illustrate the activity of the compounds of the invention: […]

T1 sequence (P07550 whole entry): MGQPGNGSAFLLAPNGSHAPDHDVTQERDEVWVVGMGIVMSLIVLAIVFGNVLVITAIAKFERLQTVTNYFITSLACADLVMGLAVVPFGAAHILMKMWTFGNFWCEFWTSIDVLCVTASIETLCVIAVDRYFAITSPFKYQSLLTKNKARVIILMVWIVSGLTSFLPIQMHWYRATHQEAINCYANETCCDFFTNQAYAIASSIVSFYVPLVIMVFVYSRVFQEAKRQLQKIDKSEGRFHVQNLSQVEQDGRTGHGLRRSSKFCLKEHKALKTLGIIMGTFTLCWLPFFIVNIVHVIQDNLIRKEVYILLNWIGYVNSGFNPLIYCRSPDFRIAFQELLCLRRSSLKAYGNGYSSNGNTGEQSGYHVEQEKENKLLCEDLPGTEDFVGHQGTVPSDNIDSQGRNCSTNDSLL

SMILES | EC50 [nM]
COc1cc(CNC(=O)Cc2cccc(CC(C)(C)NC[C@H](O)c3ccc(O)c(NS(C)(=O)=O)c3)c2)ccc1O [Example 1, 2-(3-{2-[((2R)-2-Hydroxy-2-{4-hydroxy-3-[(methylsulfonyl)amino]phenyl}ethyl)amino]-2-methylpropyl}phenyl)-N-(4-hydroxy-3-methoxybenzyl)acetamide] | 0.03
CC(C)(Cc1cccc(CC(=O)NCc2ccc(-c3ccc(O)cc3)cc2)c1)NC[C@H](O)c1ccc(O)c(NS(C)(=O)=O)c1 [Example 2, N-[(4′-Hydroxybiphenyl-4-yl)methyl]-2-(3-{2-[((2R)-2-hydroxy-2-{4-hydroxy-3-[(methylsulfonyl)amino]phenyl}ethyl)amino]-2-methylpropyl}phenyl)acetamide] | 0.24
CC(C)(Cc1cccc(CC(=O)NCc2ccc3cc(O)ccc3c2)c1)NC[C@H](O)c1ccc(O)c(NS(C)(=O)=O)c1 [Example 6] | 0.16
CC(C)(Cc1cccc(CC(=O)NCc2cccc(-c3ccc(O)cc3)c2)c1)NC[C@H](O)c1ccc(O)c(NS(C)(=O)=O)c1 [Example 7, N-[(4′-Hydroxybiphenyl-3-yl)methyl]-2-(3-{2-[((2R)-2-hydroxy-2-{4-hydroxy-3-[(methylsulfonyl)amino]phenyl}ethyl)amino]-2-methylpropyl}phenyl)acetamide] | 0.26

Further lines, results first:

EC50 [nM] | SMILES
0.45 | CC(C)(Cc1cccc(CC(=O)NCC(C)(C)c2ccc(O)cc2)c1)NC[C@H](O)c1ccc(O)c(NS(C)(=O)=O)c1 [Example 9, 2-(3-{2-[((2R)-2-Hydroxy-2-(4-hydroxy-3-[(methylsulfonyl)amino]phenyl)ethyl)amino]-2-methylpropyl}phenyl)-N-[2-(4-hydroxyphenyl)-2-methylpropyl]acetamide]
0.08 | CC(C)(Cc1cccc(CC(=O)N2CCc3cc(O)ccc3C2)c1)NC[C@H](O)c1ccc(O)c(NS(C)(=O)=O)c1 [Example 13, N-(2-Hydroxy-5-{(1R)-1-hydroxy-2-[(2-{3-[2-(6-hydroxy-3,4-dihydroisoquinolin-2(1H)-yl)-2-oxoethyl]phenyl}-1,1-dimethylethyl)amino]ethyl}phenyl)methanesulfonamide]
0.09 | CC(C)(Cc1cccc(CC(=O)NCCc2ccc(O)cc2)c1)NC[C@H](O)c1ccc(O)c(NS(C)(=O)=O)c1 [Example 15, 2-(3-{2-[((2R)-2-Hydroxy-2-{4-hydroxy-3-[(methylsulfonyl)amino]phenyl}ethyl)amino]-2-methylpropyl}phenyl)-N-[2-(4-hydroxyphenyl)ethyl]acetamide]
0.29 | CC(C)(Cc1cccc(CC(=O)NCc2cc(O)cc(C(F)(F)F)c2)c1)NC[C@H](O)c1ccc(O)c(NS(C)(=O)=O)c1 [Example 20, 2-(3-{2-[((2R)-2-Hydroxy-2-{4-hydroxy-3-[(methylsulfonyl)amino]phenyl}ethyl)amino]-2-methylpropyl}phenyl)-N-[3-hydroxy-5-(trifluoromethyl)benzyl]acetamide]
